Laboratory results: patent publication US20030064967A1 (priority 2001, published 2003)
“And” between values parts separate entries of the source, which are not always exact repeats. Identical values can stand only once.

Tests used:
HepG2 cells [1] = experiment: Cell culture assay and ELISA for apoAI HDL increase in HepG2 cells; type: cell-based, human
Description: A cell culture assay and ELISA was conducted to measure apoAi HDL increase in HepG2 cells were obtained from the American Type Culture Collection (Rockville, Md.). Fetal bovine serum (FBS) was purchased from Gibco Laboratories. Cells were cultured in minimum essential medium (MEM) containing 10% FBS, and 100 μg/mL of streptomycin, 100 unit/mL of penicillin, and 4 mM of glutamine (Gibco/BRL). Cells were grown for 2 days till they are 80% confluent in 6-well, or 12-well plates before studies. In all cases medium was changed every other day. To measure apoAI, 96-well microtiter plates were coated with a 1:1000 diluted mixture of three monoclonal antibodies against human apoAI (A05, A17, and A44) for 2 h and incubated in succession with HDL3 (0 to 15 ng/well), sheep polyclonal anti-apoAI serum (Boehringer Mannheim), alkaline phosphatase-labeled rabbit anti-sheep (Cappel), and p-nitrophenyl phosphate (1 mg/mL in 10 mmol/L ethanolamine, 0.5 mmol/L MgCl2, pH 9.5), for 2, 1 and 1 h respectively at 37° C. The plates were washed three times between different incubations. The absorbance at 405 nm was determined by using a Bio-Rad model 550 microplate reader (Bio-Rad).

[2] = test system: hypercholesterolemic hamsters; type: in vivo
Description: The following assay was conducted to HDL elevation in hamsters. Male Golden Syrian hamsters weighing 110-120 g were obtained from Charles River Laboratories (Wilmington, Mass.). Hamsters were housed individually with wood chip bedding and soft nesting material with lights on a 6 A.M. and off at 6 p.m. Upon arrival the hamsters were acclimated for three days on standard rodent chow and water (Purina rodent chow 5001) ad libitum. Prior to dosing, the hamsters were made hypercholesterolemic by feeding them a powdered diet supplemented with 0.5% cholesterol and 10% coconut oil (Harlan Teklad diet #97235) for one week. Water was added to the powdered chow to form a paste and the chow paste rolled into balls with each animal receiving 20 g of chow paste per day in stainless steel bowls. Chow intake was recorded daily. Body weights were recorded after one week and at the end of the end of the study. Hamsters were distributed into treatment groups after the one-week pretreatment period such that each group had similar average body weights.
Compounds were added to a high cholesterol chow paste and administered as an admixture at the same time each morning for two weeks. At the end of the treatment period the hamsters were fasted in the late afternoon on the day prior to blood collection. Fasting was achieved by transferring the hamsters to clean cages and removing chow stored in cheek pouches. Hamsters were anesthetized with ketamine/rompun solution. When unresponsive to toe pinch and still respiring, blood was collected via cardiac puncture from which plasma was separated and frozen at −80° C.
Lipoproteins were isolated from whole plasma by Fast Phase Liquid Chromatography (FPLC). Cholesterol and triglyceride concentrations in the different lipoprotein fractions were determined by enzymatic methods using a CX-5 chemical analyzer and standard Beckman reagents.
A Dunnetts test was used to compare the experimental and control groups. P<0.05: was considered significant.

[3] = test system: human apo A-1 transgenic mice; experiment: HDL cholesterol and human apoAI levels in human apo-A1 transgenic mice (InVivo II); type: in vivo
Description: The following assay was conducted to evaluate the effect of Compound A on HDL cholesterol levels in Human apo-A1 transgenic mice. Six-eight week old male human apo A-1 transgenic mice (catolog number JR 1927) were obtained from Jackson Labs. Upon arrival the mice were acclimated for three days on standard rodent diet and water ad libitum. Mice were then given a diet supplemented with 1.25% cholesterol, 7.5% cocoa butter and 0.5% sodium cholate for two weeks. Compound A was administered to the animals by gavage in methylcellulose at a dose of 150 mg/kg/d for two weeks concomitant with the high fat diet. At the end of the treatment period the mice were fasted overnight and then euthanized by CO2 inhalation. Blood was collected by cardiac puncture. Plasma was fractionated by fast phase liquid chromatography and cholesterol in the different lipoprotein fractions determined by an enzymatic assay. An ELISA was completed shoing an increase of h-apoAI of 65%.

HepG2 cells [4] = experiment: Uptake of 3[H]cholesteryl hexadecyl ether-labeled HDL in HepG2 cells; type: cell-based; conditions: for % 3[H]-CE uptake: 12.5 μM compound, 20-50 μg/mL 3[H]-CE HDL, 3.5 h, 37° C.; for clearance / selective uptake of cholesteryl ester: HepG2 cells
Description: An in vitro assay was conducted to measure the uptake of ^3[H]cholesteryl Hexadecyl Ether-labeled HDL in HepG2 cells. ^3[H]cholesteryl Hexadecyl Ether-labeled HDL was prepared as described by Rodrigueza et al. (Rodrigueza W. V. et al. (1999) J. Biol. Chem. 274:20344-20350). 40 μCi of ^3[H]hexadecyl ether (40-60 Ci/mmol, NEN life Sciences Products) were incubated with 5 mg of HDL3 and 240 mg of heat-inactivated lipoprotein-deficient plasma, 0.01% aprotinin in a polypropylene tube sealed with nitrogen gas for 40 h at 37° C. according to the method of Terpstra et al . ^3[H]-CE enriched HDL was re-isolated by flotation ultracentrifugation and dialyzed against phosphate-buffered saline (PBS). To perform CE uptake studies, HepG2 cells, seeded in 6 or 12 well plates were grown for 2 days till 80% confluent and, then treated with compounds in 1% RSA-DMEM medium for 24 h. The next day, cells were treated with 12.5 μM compounds and 20-50 μg/mL of ^3[H]-CE HDL for 3.5 h at 37° C. After incubation, cells were washed 4 times with PBS/BSA and 2 times with PBS, followed by addition of 0.1 N NAOH. Cells were collected, and radioactivity was measured in counts per minute and expressed as percent of ^3[H]-CE delivered to cells.

HepG2 cells [5] = experiment: Internalization and degradation of 125I-HDL3 by HepG2 cells; type: cell-based
Description: In another aspect of the invention, compounds that increase the levels of plasma HDL holoproteins can be selected using the following process. First, the compound is added to a hepatic model, preferably hepatic cells, more preferably HepG2 cells. Labeled apoAI-HDL, preferably a radioactive isotope label, more preferably ^125I, in the presence or absence of compounds is then added to the cells. The […] labeled apoAI-HDL in the conditioned medium represents degraded labeled apoAI-HDL. After washing and detaching, cells are centrifuged. Labeled apoAI-HDL in the cellular fraction represents internalized HDL holoprotein; whereas, label in the supernatant represents cell surface bound apoAI-HDL that has been dissociated. Increased amounts of labeled HDL in cells treated with compounds versus cells not treated with compounds indicates increased degradation, internalization, or binding to the cell surface. Compounds are selected which […] the amount of apoAI-HDL label in the cellular fraction of the cells contacted with a test compound compared to the amount of label in the cellular fraction of the cells not contacted with the test compound.
In another aspect of the invention, compounds that increase the levels of plasma HDLc can be selected by contacting a hepatic model, preferably hepatic cells, more preferably HepG2 cells with test compounds. Labeled apoAI-HDL, preferably a radioactive isotope label, more preferably ^125I, in the presence or absence of compounds is then added to the cells. Label in the conditioned medium represents degraded labeled-HDL. After washing and detaching, cells are centrifuged. Label in the cellular fraction represents internalized HDL holoprotein; whereas, label in the supernatant represents cell surface bound apoAI-HDL that has been dissociated. Increased amounts of label in cells treated with compounds versus cells not treated with compounds indicates increased degradation, internalization, or binding of apoAI-HDL to the cell surface. […]

[6] = type: in vivo; conditions: one study; 150 mg/kg/d by gavage in methylcellulose
apoAI = experiment: Synthesis of apoAI

CC(C)(Sc1cc(C(C)(C)C)c(O)c(C(C)(C)C)c1)Sc1cc(C(C)(C)C)c(OC(=O)CCCC(=O)O)c(C(C)(C)C)c1 [Compound A, Pentanedioic Acid, mono[4-[[1-[[3,5-bis(1,1-dimethylethyl)-4-hydroxyphenyl]thio]-1-methylethyl]thio]-2,6-bis(1,1-dimethylethyl)phenyl]ester]
% increase apoAI HDL (HepG2 cells [1]): 33%
HDLc elevation, range of three experiments ([2]; 150 mg/kg/d, two weeks): 5-44%
body weight ([2]; 150 mg/kg/d, two weeks): all animals gained weight
tolerability ([2]; 150 mg/kg/d, two weeks): well tolerated
HDLc elevation compared to untreated controls ([2]; average of three experiments, 150 mg/kg/d, two weeks, in chow): 22%
LDLc reduction compared to controls ([2]; average, n=3, 150 mg/kg/d, two weeks): 29%
increase in HDL cholesterol levels (FIG. 1) ([2]; hypercholesterolemic hamsters): 24%
VLDL cholesterol reduction compared to controls ([2]; n=3, 150 mg/kg/d, two weeks): 42%
VLDL cholesterol reduction, range ([2]; n=3, 150 mg/kg/d, two weeks): 22-53%
triglycerides reduction compared to controls ([2]; n=3, 150 mg/kg/d, two weeks): 24%
triglycerides reduction, range ([2]; n=3, 150 mg/kg/d, two weeks): 7-33%
increase of human apoAI (ELISA) ([3]; 150 mg/kg/d by gavage, two weeks, high fat diet): 64% and 65%
increase in HDL cholesterol (FIG. 7) ([3]; hypercholesterolemic human apo-AI transgenic mice): 71%
% 3[H]-CE uptake (HepG2 cells [4]): 42%
clearance / selective uptake of cholesteryl ester (HepG2 cells [4]): enhance the clearance of cholesteryl ester
degradation of 125I-HDL3 (HepG2 cells [5]): decreases degradation
internalization of 125I-HDL3 / HDL holoprotein uptake (HepG2 cells [5]): decreases internalization

CC(C)(Sc1cc(C(C)(C)C)c(O)c(C(C)(C)C)c1)Sc1cc(C(C)(C)C)c(OC(=O)CCCOS(=O)(=O)[O-])c(C(C)(C)C)c1.[Na+] [Compound B, 4-[4-[1-[[3,5-bis(1,1-dimethylethyl)-4-hydroxyphenyl]thio]-1-methylethyl]-thio-2,6-bis-(1,1-dimethyl-ethyl)phenoxy]-4-oxo-1-butyl Sodium Sulfate]
% increase apoAI HDL (HepG2 cells [1]): 26%
% 3[H]-CE uptake (HepG2 cells [4]): 44%
clearance / selective uptake of cholesteryl ester (HepG2 cells [4]): enhance the clearance of cholesteryl ester
mortality [6]: all of the mice died

CC(C)(Sc1cc(C(C)(C)C)c(O)c(C(C)(C)C)c1)Sc1cc(C(C)(C)C)c(OC(=O)COCC(=O)O)c(C(C)(C)C)c1 [Compound C, Carboxymethoxyacetic Acid, mono[4-[1-[[3,5-bis(1,1-dimethylethyl)-4-hydroxyphenyl]thio]-1-methyl-ethyl]-thio-2,6-bis(1,1-dimethylethyl)phenyl]ester]
% increase apoAI HDL (HepG2 cells [1]): 47%

COC(=O)CCCC(=O)Oc1c(C(C)(C)C)cc(SC(C)(C)Sc2cc(C(C)(C)C)c(O)c(C(C)(C)C)c2)cc1C(C)(C)C [Compound D, Pentanedioic Acid, [4-[1-[[3,5-bis(1,1-dimethylethyl)-4-hydroxyphenyl]thio]-1-methylethyl]-thio-2,6-bis(1,1-dimethylethyl)phenyl], Methyl Ester]
% increase apoAI HDL (HepG2 cells [1]): 27%

CC(C)(Sc1cc(C(C)(C)C)c(O)c(C(C)(C)C)c1)Sc1cc(C(C)(C)C)c(O)c(C(C)(C)C)c1 [Probucol, 4,4′-(isopropylidenedithio) bis(2,6-di-tert-butylphenol), reference compound]
% increase apoAI HDL (HepG2 cells [1]): −21%
% 3[H]-CE uptake (HepG2 cells [4]): 13%
internalization of 125I-HDL3 / HDL holoprotein uptake (HepG2 cells [5]): reduced HDL holoprotein uptake
effect on synthesis of apoAI (apoAI): reduced the synthesis of apoAI
